From US4691046A, “Butanedioic acid mono [(2-dimethylamino] ethyl ester)succinate” (Institut Organicheskoi Khimii Ordena Lenina I Ordena …, priority 1986, dated 1987)

How the values were obtained:
[1] = Survival of mice on acute cooling; type: in vivo; details: i.p. 1 hour before, 80 mg/kg (invention), 64 mg/kg (ester), 17 mg/kg (sodium succinate)
Experimental: The activity of the compound according to the present invention was studied in experiments on animals. The effectivemess of the compound according to the present invention was studied for resistance against an acute cold effect in comparison with conventional preparations such as butanedioic acid mono[(2-dimethylamino)ethyl ester] and sodium succinate.
The experiments were carried out on male mice (tetrahybdrids) with a body mass of 18-20 g which were placed into a cold chamber at a temperature of -15t to -17° C. in separate plastic cages slightly limiting their activity. […] The preparations were administered intraperiotoneally 1 hour before the cold effect the control animals were administered with a physiological solution.

Succinatedehydrogenase = experiment: Activity of succinatedehydrogenase in myocardium upon low-temperature treatment; type: in vivo, mice; details: 2.5 hours at -14° C.; 80 mg/kg (invention) or 64 mg/kg (ester); control 72.3 ± 1.6
Experimental: (§2) The preparations were administered one hour before the standard low-temperature treatment (-14° C.) in doses of 80 mg/kg of the compound according to the present invention and 64 mg/kg of the prior art compound-butanedioic acid mono[(2-dimethylamino)-ethyl ester].

Isocitratedehydrogenase = experiment: Activity of isocitratedehydrogenase in myocardium upon low-temperature treatment; type: in vivo, mice; details: 2.5 hours at -14° C.; 80 mg/kg (invention) or 64 mg/kg (ester); control 49.5 ± 1.2
Experimental: as §2

Glutamatedehydrogenase = experiment: Activity of glutamatedehydrogenase in myocardium upon low-temperature treatment; type: in vivo, mice; details: 2.5 hours at -14° C.; 80 mg/kg (invention) or 64 mg/kg (ester); control 68.8 ± 1.5
Experimental: as §2

Pyruvatedehydrogenase = experiment: Activity of pyruvatedehydrogenase in myocardium upon low-temperature treatment; type: in vivo, mice; details: 2.5 hours at -14° C.; 80 mg/kg (invention) or 64 mg/kg (ester); control 56.6 ± 1.1
Experimental: as §2

NADH2 --dehydrogenase = experiment: Activity of NADH2-dehydrogenase in myocardium upon low-temperature treatment; type: in vivo, mice; details: 2.5 hours at -14° C.; 80 mg/kg (invention) or 64 mg/kg (ester); control 69.8 ± 1.5
Experimental: as §2

[2] = tested on: NAD-Ph--H2 --dehydrogenase; experiment: Activity of NAD-Ph-H2-dehydrogenase in myocardium upon low-temperature treatment; type: in vivo, mice; details: 2.5 hours at -14° C.; 80 mg/kg (invention) or 64 mg/kg (ester); control 72.1 ± 1.4
Experimental: as §2

[3] = tested on: Glucose-6-phosphatedehydrogenase; experiment: Activity of glucose-6-phosphatedehydrogenase in myocardium upon low-temperature treatment; type: in vivo, mice; details: 2.5 hours at -14° C.; 80 mg/kg (invention) or 64 mg/kg (ester); control 57.3 ± 1.3
Experimental: as §2

[4] = Maximum duration of mice lifespan upon testing cold treatment (Le Blanc adaptation procedure); type: in vivo; details: with preliminary adaptation; 80 mg/kg (invention) or 64 mg/kg (ester); adaptation alone 6.0 ± 0.3
Experimental: (§1) To elucidate the effect of the compound according to the present invention on the adaptation phenomenon, experiments on male mice with a body mass of 18-20 g were carried out in conformity with the Le Blanc procedure according to which the mice were placed into a cold chamber (at -17° C.) for 10 minutes ever hour over the period of 9-10 hours. After one day the maximum lifespan of the mice at -17° C. was assessed along with the content of glucose in blood and of glycogen in organs upon a predetermined cold treatment (2.5 hours a -14° C.). The compound according to the present invention and butanedioic acid mono[(2-dimethylamino)-ethyl ester] (in doses of 80 and 64 mg/kg respectively) were introduced immediately after a series of short-time cold effects. In a number of experiments the compound according to the present invention was administered 1 hour prior to the testing (2.5 h) cold effect.

[5] = Blood glucose and organ glycogen upon predetermined (2.5 h) cold treatment (adaptation experiment); type: in vivo, mice; details: adaptation + preparation immediately after adaptation, 80 mg/kg (invention) or 64 mg/kg (ester), 2.5 h at -14° C.
Experimental: as §1

[6] = Stresso-protective activity, motion stress in slowly rotating drum for 48 hours; type: in vivo, rats; details: 48 h motion stress
Experimental: In evaluation of the stresso-protective activity of the compound according to the present invention as a model use was made of a procedure of depriving rats of sleep, meals and water in a slowly rotating drum (at the speed of 0.2 km/h).
The experiments were carried out on 42 nondescript male rats. In parallel experiments the antistress activity of butanedioic acid mono[(2-dimethylamino)ethyl ester] was studied; as the reference prepartion use was made of the prior art tranquilizer--diazepam which was used in the experiments for this very indication.
4 groups of animals were tested in parallel. Groups I and II were placed for 48 hours into a slowly rotating drum, groups III and IV were under normal conditions and were deprived only of meals and water. The compound according to the present invention and butanedioic acid mono[(2-dimethylamino)ethyl ester] were administered intraperitoneally in the dose of 10 mg/kg four times (2 times a day) in the volume of 2.5 ml/kg under the conditions of motion stress (Group I of the animals) and under normal conditions (Group III of animals). The control animals--Group II (active control) and Group IV (passive control) were given a physiological solution. The efficiency of the compound according to the present invention, of butanedioic acid mono[(2-dimethylamino)ethyl ester] and of diazepam was estimated on the basis of a set of characteristics showing the functional activity of the central nervous system, physical fitness and development of basic symptoms of the stress-syndrome.
The residence of control rats in a slowly-rotating drum over 48 hours results in a noticeable deterioration of all the studied characteristics, especially those of higher nervous activity (learning) and development of stress-syndrome. The state of control animals was characterized by lowering of the overall behavioural activity as determined by the "open-field" test (37±15%) with reference to the passive control level, by a reduction in the speed of development of a conventional avoiding response in an aqueous labyrinth (58±15%), by an increase in the number of mistakes during the teaching time (175±25%), lowering of the ultimate physical endurance as determined by the swimming-with-load test (the load is equal to 10% by mass of the body (70±17%), adrenal hypertrophy (146±16%), thymus atrophy (49±9%) and formation of ulcers on the stomach mucous membrane (5.25±1.0%).

[7] = Biochemical substrates in mice upon preset (2.5 hours) low-temperature treatment; details: 2.5 hours at -14° C., 1 hour after 80 mg/kg (invention) or 64 mg/kg (ester)
Experimental: as §2

CN(C)CCOC(=O)CCC(=O)O [Butanedioic acid mono[(2-dimethylamino)ethyl ester]] [reference compound]
Survival, %, 1 hour ([1]; 1 hour of cold at -15 to -17° C.): 100% | Survival, %, 2 hours ([1]; 2 hours of cold at -15 to -17° C.): 90% | Survival, %, 3 hours ([1]; 3 hours of cold at -15 to -17° C.): 70% | Survival, %, 4 hours ([1]; 4 hours of cold at -15 to -17° C.): 50% | Survival, %, 5 hours ([1]; 5 hours of cold at -15 to -17° C.): 20% | Survival, %, 6 hours ([1]; 6 hours of cold at -15 to -17° C.): 10% | Activity of succinatedehydrogenase in myocardium (Succinatedehydrogenase): 75.6 ± 2.4 relative units | Activity of isocitratedehydrogenase in myocardium (Isocitratedehydrogenase): 58.2 ± 1.4 relative units | Activity of glutamatedehydrogenase in myocardium (Glutamatedehydrogenase): 72.4 ± 0.6 relative units | Activity of pyruvatedehydrogenase in myocardium (Pyruvatedehydrogenase): 62.6 ± 3.5 relative units | Activity of NADH2-dehydrogenase in myocardium (NADH2 --dehydrogenase): 70.8 ± 2.7 relative units | Activity of NAD-Ph-H2-dehydrogenase in myocardium [2]: 76.4 ± 2.7 relative units | Activity of glucose-6-phosphatedehydrogenase in myocardium [3]: 60.2 ± 1.4 relative units | Lifespan in hours (at -17° C.), preliminary adaptation + preparation [4]: 6.2 ± 0.4 h | Glycogen, heart ([5]; control 1.7 ± 0.2): 2.4 ± 0.2 mg/g | Glycogen, liver ([5]; control 6.7 ± 0.4): 10.2 ± 2.7 mg/g | Blood glucose ([5]; control 37 ± 6): 75 ± 4 mg. % | stresso-protective activity compared with the compound of the invention ([6]; in words): far less pronounced | Weight coefficient of thymus ([6]; 10 mg/kg i.p. four times (invention, ester), control 0.95 ± 0.18, 10 mg/kg): 1.08 g/kg of the initial body mass | Weight coefficient of adrenal glands ([6]; 10 mg/kg i.p. four times (invention, ester), control 1.246 ± 0.028, 10 mg/kg): 1.42 g/kg of the initial body mass | Number of attempts till reaching the learning criterion (water labyrinth) ([6]; 10 mg/kg i.p. four times (invention, ester), control 4.75 ± 0.5, 10 mg/kg): 4.10 | Number of ulcers on the stomach mucous membrane ([6]; 10 mg/kg i.p. four times (invention, ester), control 5.25 ± 1.0, 10 mg/kg): 4.2 | Duration of swimming ([6]; 10 mg/kg i.p. four times (invention, ester), control 244 ± 26, 10 mg/kg): 325 s | Liver glycogen ([7]; control 8.1 ± 0.6, intact 35.2 ± 4.5): 6.7 ± 0.8 mg/kg | Blood glucose ([7]; control 42 ± 4, intact 79 ± 3): 64 ± 2 mg. % | Creatine phosphate ([7]; myocardium, control 1.2 ± 0.08, intact 3.7 ± 0.3): 1.4 ± 0.04 μm/g
